Assay results published in patent US9375000B2, “Pesticidal arylpyrrolidines” (Bayer Intellectual Property GmbH, priority 2011, dated 2016).

Assays:
Type in all cases: in vivo
[1] = test system: Nymphs of the tick Amblyomma hebraeum; test: Amblyomma hebraeum test (AMBYHE), nymph immersion; conditions: application rate 100 ppm; immersion one minute; 42 days
Procedure: Solvent: Dimethyl sulfoxide
To produce a suitable preparation of active compound, 10 mg of active compound are dissolved in 0.5 ml solvent, and the concentrate is diluted with water to the desired concentration. Nymphs of the tick Amblyomma hebraeum are placed in perforated plastic beakers and immersed in aqueous compound solution for one minute. Ticks are transferred to a filter paper in a petridish and incubated in a climate chamber for 42 days. After the specified period of time, mortality in % is determined. 100% means that all the ticks have been killed; 0% means that none of the ticks have been killed.

[2] = test system: Two-Spotted Spider Mite (Tetranychus urticae); test: Two-spotted spider mite (Tetranychus urticae) spray test on kidney bean; conditions: after 7 days
In short: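 Kidney bean plants at the two-leaf stage carried 50-100 adult mites and were sprayed one day later with compound in DMF/polyoxyethylene alkyl phenyl ether diluted in water. Ammonium salt and penetration enhancer at 1000 ppm were added if needed. Acaricidal activity (% mites killed) was scored after 7 days in a greenhouse.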

[3] = test system: Cucurbit Leaf Beetle (Aulacophora femoralis); test: Cucurbit leaf beetle (Aulacophora femoralis) cucumber leaf dip test; conditions: after 7 days
In short: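 Cucumber leaves dipped in compound formulated with DMF and polyoxyethylene alkyl phenyl ether, diluted in water, with ammonium salt or ammonium salt plus penetration enhancer at 1000 ppm added if necessary; dried leaves placed on sterilized soil with five second-instar larvae. Kept at 25° C; larval mortality counted after 7 days.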

[4] = test system: green peach aphids (Myzus persicae); test: Myzus persicae spray test (MYZUPE); conditions: active compound concentration 20 ppm; after 6 days
Procedure: Unless not mentioned otherwise, the test solutions were prepared as follows:
Solvent: 3 parts by weight Dimethylformamide
Emulsifier: 1 part by weight Polyoxyethylene alkyl phenyl ether
In order to make an appropriate formulation of an active compound, 1 part by weight of the active compound is mixed with the above mentioned amount of solvent and emulsifier and the mixture is diluted with water to a prescribed concentration. Ammonium salt or ammonium salt and penetration enhancer in a dosage of 1000 ppm are added to the desired concentration if necessary.
1 day before treatment, green peach aphids (Myzus persicae) are inoculated onto the testing plants, about 50 heads per leaf, 100 for 1 pot. A paper label is placed on each pot. Solutions are sprayed directly onto both insects and plants. After drying, the pots are placed in the greenhouse at 20° C.-25° C. After 6 days mortality in % is determined. An insecticidal activity of 100% means that all aphids were killed, whereas an insecticidal activity of 0% means that no aphid was killed.

[5] = test system: Ctenocephalides felis; test: Test against Ctenocephalides felis (CTECFE), blood feeding; conditions: for activity (mortality): application rate 100 ppm in cattle blood, after 2 days
Procedure: (§1) Solvent: dimethyl sulfoxide
To produce a suitable preparation of active compound, 10 mg of active compound are dissolved in 0.5 ml solvent, and the concentrate is diluted with cattle blood to the desired concentration. Approximately 20 adult unfed (Ctenocepahlides felis) are placed in flea chambers. The blood chamber, sealed with parafilm on the bottom, are filled with cattle blood supplied with compound solution and placed on top of the flea chamber, so that the fleas are able to suck the blood. The blood chamber is heated to 37° C. whereas the flea chamber is kept at room temperature.
After 2 days mortality in % is determined. 100% means that all the fleas have been killed; 0% means that none of the fleas have been killed.

[6] = test system: Thrips palmi; test: Thrips palmi spray test (THRIPL); conditions: active compound concentration 20 ppm; after 6 days
In short: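 Cucumber seedlings sprayed with compound formulated in DMF/polyoxyethylene alkyl phenyl ether and diluted in water, ammonium salt ± penetration enhancer at 1000 ppm added if needed. About 100 T. palmi eggs attached, plants held caged at 100% humidity, 23 °C. Percent activity scored from feeding damage after 6 days, 100 = no damage, 0 = as untreated.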

[7] = test system: Tobacco Cutworm (Spodoptera litura) Larvae; test: Tobacco cutworm (Spodoptera litura) larvae, sweet potato leaf dip test; conditions: dead larvae after 7 days
In short: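 Sweet potato leaves were dipped in DMF/emulsifier test solution at the set concentration and air-dried. Ten third-instar S. litura larvae were placed per dish at 25 °C, with fresh leaves added on days 2 and 4. Mortality was counted on day 7, given as % insecticidal activity averaged over two dishes.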

[8] = test system: Larvae of Spodoptera litura; test: Larvae of Spodoptera litura, method using artificial feeds; conditions: artificial feed, after 7 days
In short: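 Compound formulated in dimethylformamide with polyoxyethylene alkyl phenyl ether emulsifier, water-diluted and poured onto artificial diet. Five 3rd-instar Spodoptera litura larvae per cup, held at 25° C and 50-60% humidity. Mortality after 7 days expressed as pesticidal ratio.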

[9] = test system: Lucilia cuprina 1st instar larvae; test: Test against Lucilia cuprina larvae; conditions: 48 h, read-out: activity (larval mortality)
Procedure: as §1
10 mg active compound are dissolve in 0.5 mL dimethyl sulfoxide. Serial dilutions are made to obtain the desired rates.
Approximately 20 Lucilia cuprina 1st instar larvae are transferred into a test tube containing 1 cm^3 of minced horse meat and 0.5 ml aqueous dilution of test compound. After 48 hrs percentage of larval mortality are recorded. 100% efficacy=all larvae are killed, […].

[10] = active compound concentration 4 ppm
[11] = active compound concentration 20 ppm

| SMILES | activity (mortality) [1] [%] | acaricidal activity [2, 10] [%] | insecticidal activity [3, 11] [%] | insecticidal activity (mortality) [4] [%] | activity (mortality) [5] [%] | insecticidal activity (by feeding damage degree) [6] [%] | insecticidal activity [7, 10] [%] | insecticidal activity (pesticidal ratio) [8, 10] [%] | insecticidal activity (pesticidal ratio) [8, 11] [%] | insecticidal activity [3, 10] [%] | acaricidal activity [2, 11] [%] | pest or weed control at 20 ppm ([8]; Spodoptera litura, 168 h, active compound concentration 20 ppm, read-out: insecticidal activity (pesticidal ratio)) [%] | pest or weed control at 20 ppm ([2]; Tetranychus urticae, 168 h, active compound concentration 20 ppm, read-out: acaricidal activity) [%] | mortality at 100 ppm ([5]; Ctenocephalides felis, in Bos taurus, 48 h, read-out: activity (mortality)) [%] | insecticidal activity [7, 11] [%] | mortality at 100 ppm [9] [%] |
| --- | --- | --- | --- | --- | --- | --- | --- | --- | --- | --- | --- | --- | --- | --- | --- | --- |
| O=C(NCc1cnc(N2CCC(c3cc(Cl)c(F)c(Cl)c3F)(C(F)(F)F)C2O)nc1C(F)(F)F)C1CC1 (centres unmarked) [A4-115] | 100 | 100 | 100 | 100 | 90 | 98 | 100 | – | – | – | – | – | – | – | – | – |
| CCC(=O)NCc1ccc(N2CCC(c3cc(F)cc(C(F)(F)F)c3)(C(F)(F)F)C2O)nc1C(F)(F)F (mixture of isomers) [A3-244] | 100 | 90 | 100 | – | – | – | – | 100 | 100 | 100 | – | – | – | – | – | – |
| O=C(NCc1cnc(N2CCC(c3cc(Cl)c(F)c(Cl)c3F)(C(F)(F)F)C2O)cc1C(F)(F)F)C1CC1 (centres unmarked) [A5-82] | 100 | 100 | 100 | – | 95 | 90 | 100 | – | – | – | – | – | – | – | – | – |
| O=C(NCc1ccc(N2CCC(c3cc(F)cc(C(F)(F)F)c3)(C(F)(F)F)C2O)nc1C(F)(F)F)C1CC1 (mixture of isomers) [A3-247] | 100 | 100 | 100 | 100 | 95 | – | – | 100 | 100 | 100 | 100 | – | – | – | – | – |
| O=C(NCc1ccc(N2CCC(c3ccc(F)c(C(F)(F)F)c3)(C(F)(F)F)C2O)nc1C(F)(F)F)C1CC1 (mixture of isomers) [A3-236] | 100 | 100 | 100 | – | – | 98 | – | 100 | 100 | 100 | – | – | – | – | – | – |
| CCC(=O)NCc1ccc(N2CC(c3cc(Cl)c(Cl)c(Cl)c3)(C(F)(F)F)CC2=O)cc1C(F)(F)F (centres unmarked) [C1-46, N-{4-[2-oxo-4-(3,4,5-trichlorophenyl)-4-(trifluoromethyl)pyrrolidin-1-yl]-2-(trifluoromethyl)benzyl}propanamide] | – | – | – | – | – | – | – | – | – | – | – | 100 | 100 | 100 | 100 | 100 |
| O=C(CC(F)(F)F)NCc1ccc(N2CCC(c3cc(Cl)cc(C(F)(F)F)c3)(C(F)(F)F)C2O)nc1C(F)(F)F (racemic) [A3-271] | 100 | 100 | 100 | – | – | 98 | – | 100 | 100 | 100 | 100 | – | – | – | – | – |
| O=C(NCc1cnc(N2CCC(c3cc(Cl)c(F)c(Cl)c3)(C(F)(F)F)C2O)nc1C(F)(F)F)C1CC1 (centres unmarked) [A4-104] | 100 | 100 | 100 | – | – | 98 | 100 | – | – | – | – | – | – | – | – | – |
